Laboratory results from article PMC7156458, “Synthetic biology based construction of biological activity-related library of fungal decalin-containing diterpenoid pyrones” (Nature Communications, 2020).

Target: Aβ42 (Homo sapiens, UniProt P05067)
Test: Th-T (thioflavin-T) assay of Aβ42 aggregation
Assay type: biochemical
Conditions: for Th-T fluorescence, mean of three wells: Aβ42 aggregation time course

Chain of Aβ42 (P05067 672-713): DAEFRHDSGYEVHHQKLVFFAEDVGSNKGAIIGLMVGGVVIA

## C=C1CC[C@@H]2[C@](C)(CC[C@H]3O[C@H](C=C(C)C)C[C@@]23C)[C@@H]1Cc1c(OC)oc(CO)c(C)c1=O [Compound 20]
  delay of the nucleation phase: no delay
  elongation of Aβ42: partly suppressed the elongation of Aβ42
Aβ42 (10 μM) ± DPPs (20 μM), room temperature
  first Th-T assay result: slightly suppressed
Reading M117
  Th-T fluorescence, mean of three wells: 4.214
Reading M118
  Th-T fluorescence, mean of three wells: 4.194
Reading M119
  Th-T fluorescence, mean of three wells: 4.178
Reading M120
  Th-T fluorescence, mean of three wells: 4.1845
Reading M121
  Th-T fluorescence, mean of three wells: 4.166
Reading M122
  Th-T fluorescence, mean of three wells: 4.139
Reading M123
  Th-T fluorescence, mean of three wells: 4.16
Reading M124
  Th-T fluorescence, mean of three wells: 4.194
Reading M125
  Th-T fluorescence, mean of three wells: 4.155
Reading M126
  Th-T fluorescence, mean of three wells: 4.13
Reading M127
  Th-T fluorescence, mean of three wells: 4.172
Reading M128
  Th-T fluorescence, mean of three wells: 4.137
Reading M129
  Th-T fluorescence, mean of three wells: 4.1254
Reading M130
  Th-T fluorescence, mean of three wells: 4.128
Column suffix _10, measurement M19
  Th-T fluorescence, mean of three wells (Fig. 7a): 3.317
Column suffix _10, measurement M20
  Th-T fluorescence, mean of three wells (Fig. 7a): 3.391
Column suffix _10, measurement M21
  Th-T fluorescence, mean of three wells (Fig. 7a): 3.434
Column suffix _10, measurement M22
  Th-T fluorescence, mean of three wells (Fig. 7a): 3.448
Column suffix _10, measurement M23
  Th-T fluorescence, mean of three wells (Fig. 7a): 3.464
Column suffix _10, measurement M24
  Th-T fluorescence, mean of three wells (Fig. 7a): 3.465
Column suffix _10, measurement M25
  Th-T fluorescence, mean of three wells (Fig. 7a): 3.454
Column suffix _10, measurement M26
  Th-T fluorescence, mean of three wells (Fig. 7a): 3.452
Column suffix _10, measurement M27
  Th-T fluorescence, mean of three wells (Fig. 7a): 3.468
Column suffix _10, measurement M28
  Th-T fluorescence, mean of three wells (Fig. 7a): 3.469
Column suffix _10, measurement M29
  Th-T fluorescence, mean of three wells (Fig. 7a): 3.45
Column suffix _10, reading M1
  Th-T assay signal, mean of three wells (Fig. 7a): 0.2292
Column suffix _10, reading M2
  Th-T assay signal, mean of three wells (Fig. 7a): 0.2545
Column suffix _10, reading M3
  Th-T assay signal, mean of three wells (Fig. 7a): 0.2762
Column suffix _10, reading M4
  Th-T assay signal, mean of three wells (Fig. 7a): 0.324
Column suffix _10, reading M5
  Th-T assay signal, mean of three wells (Fig. 7a): 0.3535
Column suffix _10, reading M6
  Th-T assay signal, mean of three wells (Fig. 7a): 0.4731
Column suffix _10, reading M7
  Th-T assay signal, mean of three wells (Fig. 7a): 0.5173
Column suffix _10, reading M8
  Th-T assay signal, mean of three wells (Fig. 7a): 0.5644
Column suffix _10, reading M9
  Th-T assay signal, mean of three wells (Fig. 7a): 0.6382
Column suffix _10, reading M10
  Th-T assay signal, mean of three wells (Fig. 7a): 0.6392
Column suffix _10, reading M11
  Th-T assay signal, mean of three wells (Fig. 7a): 0.7204
Column suffix _10, reading M12
  Th-T assay signal, mean of three wells (Fig. 7a): 0.8506
Column suffix _10, reading M13
  Th-T assay signal, mean of three wells (Fig. 7a): 1.108
Column suffix _10, reading M14
  Th-T assay signal, mean of three wells (Fig. 7a): 1.585
Column suffix _10, reading M15
  Th-T assay signal, mean of three wells (Fig. 7a): 2.1202
Column suffix _10, reading M16
  Th-T assay signal, mean of three wells (Fig. 7a): 2.635
Column suffix _10, reading M17
  Th-T assay signal, mean of three wells (Fig. 7a): 2.976
Column suffix _10, reading M18
  Th-T assay signal, mean of three wells (Fig. 7a): 3.206
Column suffix _10, reading M85
  Fig. 7a Th-T reading, mean of three wells: 3.354
Column suffix _10, reading M86
  Fig. 7a Th-T reading, mean of three wells: 3.35
Column suffix _10, reading M87
  Fig. 7a Th-T reading, mean of three wells: 3.36
Column suffix _10, reading M88
  Fig. 7a Th-T reading, mean of three wells: 3.344
Column suffix _10, reading M89
  Fig. 7a Th-T reading, mean of three wells: 3.359
Column suffix _10, reading M90
  Fig. 7a Th-T reading, mean of three wells: 3.344
Column suffix _10, reading M91
  Fig. 7a Th-T reading, mean of three wells: 3.334
Column suffix _10, reading M92
  Fig. 7a Th-T reading, mean of three wells: 3.329
Column suffix _10, reading M93
  Fig. 7a Th-T reading, mean of three wells: 3.316
Column suffix _10, reading M94
  Fig. 7a Th-T reading, mean of three wells: 3.328
Column suffix _10, reading M95
  Fig. 7a Th-T reading, mean of three wells: 3.309
Column suffix _10, reading M96
  Fig. 7a Th-T reading, mean of three wells: 3.312
Column suffix _10, reading M97
  Fig. 7a Th-T reading, mean of three wells: 3.295
Column suffix _10, reading M98
  Fig. 7a Th-T reading, mean of three wells: 3.318
Column suffix _10, reading M99
  Fig. 7a Th-T reading, mean of three wells: 3.3
Column suffix _10, reading M100
  Fig. 7a Th-T reading, mean of three wells: 3.294
Column suffix _10, reading M101
  Fig. 7a Th-T reading, mean of three wells: 3.313
Column suffix _10, reading M102
  Fig. 7a Th-T reading, mean of three wells: 3.28
Column suffix _10, reading M103
  Fig. 7a Th-T reading, mean of three wells: 3.294
Column suffix _10, reading M104
  Fig. 7a Th-T reading, mean of three wells: 3.29
Column suffix _10, reading M105
  Fig. 7a Th-T reading, mean of three wells: 3.266
Column suffix _10, reading M106
  Fig. 7a Th-T reading, mean of three wells: 3.268
Column suffix _20, measurement M19
  Th-T fluorescence, mean of three wells (Fig. 7a): 3.146
Column suffix _20, measurement M20
  Th-T fluorescence, mean of three wells (Fig. 7a): 3.22
Column suffix _20, measurement M21
  Th-T fluorescence, mean of three wells (Fig. 7a): 3.265
Column suffix _20, measurement M22
  Th-T fluorescence, mean of three wells (Fig. 7a): 3.294
Column suffix _20, measurement M23
  Th-T fluorescence, mean of three wells (Fig. 7a): 3.285
Column suffix _20, measurement M24
  Th-T fluorescence, mean of three wells (Fig. 7a): 3.3066
Column suffix _20, measurement M25
  Th-T fluorescence, mean of three wells (Fig. 7a): 3.328
Column suffix _20, measurement M26
  Th-T fluorescence, mean of three wells (Fig. 7a): 3.367
Column suffix _20, measurement M27
  Th-T fluorescence, mean of three wells (Fig. 7a): 3.353
Column suffix _20, measurement M28
  Th-T fluorescence, mean of three wells (Fig. 7a): 3.346
Column suffix _20, measurement M29
  Th-T fluorescence, mean of three wells (Fig. 7a): 3.34
Column suffix _20, measurement M30
  Th-T fluorescence, mean of three wells (Fig. 7a): 3.361
Column suffix _20, reading M1
  Th-T assay signal, mean of three wells (Fig. 7a): 0.2139
Column suffix _20, reading M2
  Th-T assay signal, mean of three wells (Fig. 7a): 0.2391
Column suffix _20, reading M3
  Th-T assay signal, mean of three wells (Fig. 7a): 0.2688
Column suffix _20, reading M4
  Th-T assay signal, mean of three wells (Fig. 7a): 0.2877
Column suffix _20, reading M5
  Th-T assay signal, mean of three wells (Fig. 7a): 0.33
Column suffix _20, reading M6
  Th-T assay signal, mean of three wells (Fig. 7a): 0.4061
Column suffix _20, reading M7
  Th-T assay signal, mean of three wells (Fig. 7a): 0.4716
Column suffix _20, reading M8
  Th-T assay signal, mean of three wells (Fig. 7a): 0.5038
Column suffix _20, reading M9
  Th-T assay signal, mean of three wells (Fig. 7a): 0.5302
Column suffix _20, reading M10
  Th-T assay signal, mean of three wells (Fig. 7a): 0.5653
Column suffix _20, reading M11
  Th-T assay signal, mean of three wells (Fig. 7a): 0.6147
Column suffix _20, reading M12
  Th-T assay signal, mean of three wells (Fig. 7a): 0.7691
Column suffix _20, reading M13
  Th-T assay signal, mean of three wells (Fig. 7a): 1.152
Column suffix _20, reading M14
  Th-T assay signal, mean of three wells (Fig. 7a): 1.832
Column suffix _20, reading M15
  Th-T assay signal, mean of three wells (Fig. 7a): 2.436
Column suffix _20, reading M16
  Th-T assay signal, mean of three wells (Fig. 7a): 2.813
Column suffix _20, reading M17
  Th-T assay signal, mean of three wells (Fig. 7a): 2.993
Column suffix _20, reading M18
  Th-T assay signal, mean of three wells (Fig. 7a): 3.081
Column suffix _20, reading M85
  Fig. 7a Th-T reading, mean of three wells: 3.286
Column suffix _20, reading M86
  Fig. 7a Th-T reading, mean of three wells: 3.29
Column suffix _20, reading M87
  Fig. 7a Th-T reading, mean of three wells: 3.2956
Column suffix _20, reading M88
  Fig. 7a Th-T reading, mean of three wells: 3.332
Column suffix _20, reading M89
  Fig. 7a Th-T reading, mean of three wells: 3.367
Column suffix _20, reading M90
  Fig. 7a Th-T reading, mean of three wells: 3.341
Column suffix _20, reading M91
  Fig. 7a Th-T reading, mean of three wells: 3.299
Column suffix _20, reading M92
  Fig. 7a Th-T reading, mean of three wells: 3.303
Column suffix _20, reading M93
  Fig. 7a Th-T reading, mean of three wells: 3.313
Column suffix _20, reading M94
  Fig. 7a Th-T reading, mean of three wells: 3.332
Column suffix _20, reading M95
  Fig. 7a Th-T reading, mean of three wells: 3.309
Column suffix _20, reading M96
  Fig. 7a Th-T reading, mean of three wells: 3.268
Column suffix _20, reading M97
  Fig. 7a Th-T reading, mean of three wells: 3.26
Column suffix _20, reading M98
  Fig. 7a Th-T reading, mean of three wells: 3.269
Column suffix _20, reading M99
  Fig. 7a Th-T reading, mean of three wells: 3.3
Column suffix _20, reading M100
  Fig. 7a Th-T reading, mean of three wells: 3.292
